# According to ChEMBL document CHEMBL3585336, “Synthesis and evaluation of quinazoline amino acid derivatives as mono amine oxidase (MAO) inhibitors” (Bioorg Med Chem, 2015):
# Tests used:
# [1] = target: T1, Amine oxidase [flavin-containing] A (Bos taurus, UniProt P21398); experiment: Inhibition of bovine brain mitochondria MAO-A using serotonin substrate after 60 mins by fluorimetric method
# T1 sequence (P21398 whole entry): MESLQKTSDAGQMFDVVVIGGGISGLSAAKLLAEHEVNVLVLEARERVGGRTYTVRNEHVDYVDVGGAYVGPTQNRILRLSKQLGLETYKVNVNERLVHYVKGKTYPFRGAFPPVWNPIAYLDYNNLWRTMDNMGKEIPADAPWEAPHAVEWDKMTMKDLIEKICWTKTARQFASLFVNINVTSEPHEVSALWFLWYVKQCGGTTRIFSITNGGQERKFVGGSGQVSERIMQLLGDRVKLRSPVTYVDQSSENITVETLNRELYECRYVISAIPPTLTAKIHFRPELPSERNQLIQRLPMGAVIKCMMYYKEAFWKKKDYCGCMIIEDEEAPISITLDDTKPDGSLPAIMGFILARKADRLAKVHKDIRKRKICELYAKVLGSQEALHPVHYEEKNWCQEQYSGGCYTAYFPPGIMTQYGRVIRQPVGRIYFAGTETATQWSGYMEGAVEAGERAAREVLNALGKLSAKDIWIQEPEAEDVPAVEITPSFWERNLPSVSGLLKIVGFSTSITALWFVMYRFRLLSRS
# Mus musculus [2] = experiment: Acute toxicity in mouse at 300 mg/kg, po after 24 hrs; type: organism-based; conditions: in vivo
# Mus musculus [3] = experiment: Acute toxicity in mouse at 125 mg/kg, ip after 24 hrs; type: organism-based; conditions: in vivo
# [4] = target: T2, Amine oxidase [flavin-containing] B (Bos taurus, UniProt P56560); experiment: Inhibition of bovine brain mitochondria MAO-B using benzylamine substrate after 60 mins by fluorimetric method
# T2 sequence (P56560 whole entry): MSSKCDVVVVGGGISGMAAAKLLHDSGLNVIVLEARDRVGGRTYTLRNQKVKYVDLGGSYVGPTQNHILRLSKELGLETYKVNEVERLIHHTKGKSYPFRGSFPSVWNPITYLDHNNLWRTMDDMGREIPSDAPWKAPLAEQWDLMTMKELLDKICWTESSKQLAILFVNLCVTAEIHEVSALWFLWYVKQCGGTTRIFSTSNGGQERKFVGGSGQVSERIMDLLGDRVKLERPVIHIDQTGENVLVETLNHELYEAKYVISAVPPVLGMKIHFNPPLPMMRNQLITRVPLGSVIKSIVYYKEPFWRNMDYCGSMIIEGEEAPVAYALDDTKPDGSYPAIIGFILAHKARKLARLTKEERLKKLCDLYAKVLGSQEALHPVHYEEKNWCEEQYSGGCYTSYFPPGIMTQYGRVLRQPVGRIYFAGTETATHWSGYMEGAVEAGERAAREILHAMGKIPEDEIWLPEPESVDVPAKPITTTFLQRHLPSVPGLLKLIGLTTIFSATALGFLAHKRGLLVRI
Compound,IC50 [1] [µM],Activity (Mus musculus [2]),Activity (Mus musculus [3]),IC50 [4] [µM]
CC(C(=O)NN)N1C(=O)c2ccccc2NC1c1ccco1 (stereo unspecified),0.032,Non-toxic,Non-toxic,310
NNC(=O)CN1C(=O)c2ccccc2NC1c1ccc(Cl)cc1 (stereo unspecified),0.048,Non-toxic,Non-toxic,940
COC(=O)CCCCCN1C(=O)c2ccccc2NC1c1ccc2c(c1)OCO2 (stereo unspecified),0.084,Non-toxic,Non-toxic,820
COC(=O)CCCN1C(=O)c2ccccc2NC1c1ccccc1 (stereo unspecified),0.063,Non-toxic,Non-toxic,540
COC(=O)CCCN1C(=O)c2ccccc2NC1c1ccc2c(c1)OCO2 (stereo unspecified),0.088,Non-toxic,Non-toxic,660
COC(=O)C(C)N1C(=O)c2ccccc2NC1c1ccco1 (stereo unspecified),0.0082,Non-toxic,Non-toxic,61
COC(=O)CN1C(=O)c2ccccc2NC1c1ccc(Cl)cc1 (stereo unspecified),0.0036,Non-toxic,Non-toxic,88
C#CCN(C)CCCOc1ccc(Cl)cc1Cl [CLORGILINE],,Non-toxic,Non-toxic,
COC(=O)CCN1C(=O)c2ccccc2NC1c1ccc2c(c1)OCO2 (stereo unspecified),0.084,Non-toxic,Non-toxic,170
COC(=O)CNC(=O)c1ccccc1N,0.052,Non-toxic,Non-toxic,850
NNC(=O)CCN1C(=O)c2ccccc2NC1c1ccc(Cl)cc1 (stereo unspecified),0.051,Non-toxic,Non-toxic,420
COC(=O)CCCN1C(=O)c2ccccc2NC1c1ccco1 (stereo unspecified),0.096,Non-toxic,Non-toxic,780
COC(=O)C(C)N1C(=O)c2ccccc2NC1c1ccc2c(c1)OCO2 (stereo unspecified),0.0028,Non-toxic,Non-toxic,86
NNC(=O)C(Cc1ccccc1)N1C(=O)c2ccccc2NC1c1ccc(Cl)cc1 (stereo unspecified),0.018,Non-toxic,Non-toxic,120
COC(=O)[C@H](Cc1ccccc1)NC(=O)c1ccccc1N,0.038,Non-toxic,Non-toxic,680
COC(=O)CCCCCNC(=O)c1ccccc1N,0.056,Non-toxic,Non-toxic,440
NNC(=O)C(Cc1ccccc1)N1C(=O)c2ccccc2NC1c1ccco1 (stereo unspecified),0.028,Non-toxic,Non-toxic,220
NNC(=O)CN1C(=O)c2ccccc2NC1c1ccc2c(c1)OCO2 (stereo unspecified),0.0021,Non-toxic,Non-toxic,83
COC(=O)CN1C(=O)c2ccccc2NC1c1ccccc1 (stereo unspecified),,Non-toxic,Non-toxic,
COC(=O)CCCNC(=O)c1ccccc1N,0.071,Non-toxic,Non-toxic,460

Compound,IC50 [1] [µM],Activity (Mus musculus [2]),Activity (Mus musculus [3]),IC50 [4] [µM]
COC(=O)CCNC(=O)c1ccccc1N,0.062,Non-toxic,Non-toxic,560
COC(=O)CCCCCNC(=O)c1ccccc1/N=C/c1ccccc1,0.064,Non-toxic,Non-toxic,540
COC(=O)CCCCCN1C(=O)c2ccccc2NC1c1ccc(Cl)cc1 (stereo unspecified),0.044,Non-toxic,Non-toxic,290
COC(=O)CN1C(=O)c2ccccc2NC1c1ccco1 (stereo unspecified),0.044,Non-toxic,Non-toxic,380
COC(=O)CCN1C(=O)c2ccccc2NC1c1ccc(Cl)cc1 (stereo unspecified),0.098,Non-toxic,Non-toxic,720
COc1ccc(C2Nc3ccccc3C(=O)N2CC(=O)NN)cc1 (stereo unspecified),0.082,Non-toxic,Non-toxic,890
COC(=O)CN1C(=O)c2ccccc2NC1c1ccc2c(c1)OCO2 (stereo unspecified),0.061,Non-toxic,Non-toxic,740
NNC(=O)CCN1C(=O)c2ccccc2NC1c1ccccc1 (stereo unspecified),0.016,Non-toxic,Non-toxic,210
NNC(=O)CN1C(=O)c2ccccc2NC1c1ccccc1 (stereo unspecified),0.038,Non-toxic,Non-toxic,310
NNC(=O)CCN1C(=O)c2ccccc2NC1c1ccc2c(c1)OCO2 (stereo unspecified),0.032,Non-toxic,Non-toxic,380
COC(=O)CN1C(=O)c2ccccc2NC1c1ccc(OC)cc1 (stereo unspecified),0.048,Non-toxic,Non-toxic,560
NNC(=O)CCCN1C(=O)c2ccccc2NC1c1ccco1 (stereo unspecified),0.036,Non-toxic,Non-toxic,270
COC(=O)[C@H](C)NC(=O)c1ccccc1N,0.063,Non-toxic,Non-toxic,410
COC(=O)C(C)N1C(=O)c2ccccc2NC1c1ccccc1 (stereo unspecified),0.039,Non-toxic,Non-toxic,460
NNC(=O)CN1C(=O)c2ccccc2NC1c1ccco1 (stereo unspecified),0.036,Non-toxic,Non-toxic,560
NNC(=O)CCCN1C(=O)c2ccccc2NC1c1ccc2c(c1)OCO2 (stereo unspecified),0.082,Non-toxic,Non-toxic,420
COC(=O)C(Cc1ccccc1)N1C(=O)c2ccccc2NC1c1ccc(Cl)cc1 (stereo unspecified),0.042,Non-toxic,Non-toxic,540
COC(=O)C(Cc1ccccc1)N1C(=O)c2ccccc2NC1c1ccco1 (stereo unspecified),0.073,Non-toxic,Non-toxic,340
NNC(=O)CCCN1C(=O)c2ccccc2NC1c1ccccc1 (stereo unspecified),0.047,Non-toxic,Non-toxic,370
COC(=O)CCN1C(=O)c2ccccc2NC1c1ccccc1 (stereo unspecified),0.092,Non-toxic,Non-toxic,860
